Here are results for 18 compounds from ChEMBL document CHEMBL1144794, “Synthesis of 4'-modified noraristeromycins to clarify the effect of the 4'-hydroxyl groups for inhibitory activity against S-adenosyl-L-homocysteine hydrolase” (Bioorg Med Chem Lett, 2008).

pIC50: −log10 of the molar value. Active and inactive are the calls of the source. The calls are words filed in the database; no cut-off is given here. A value given as a limit tells only on which side of the number the result lay.

One experiment deals with Plasmodium falciparum. Kind of experiment: (§1) Inhibition of Plasmodium falciparum recombinant SAHH at 1000 uM.
Experiment [1] concerns the target T1, Adenosylhomocysteinase (Homo sapiens, UniProt P23526). Kind of experiment: Inhibition of human recombinant SAHH at 1000 uM.
Target sequence in this assay (P23526 2-432 limits assumed): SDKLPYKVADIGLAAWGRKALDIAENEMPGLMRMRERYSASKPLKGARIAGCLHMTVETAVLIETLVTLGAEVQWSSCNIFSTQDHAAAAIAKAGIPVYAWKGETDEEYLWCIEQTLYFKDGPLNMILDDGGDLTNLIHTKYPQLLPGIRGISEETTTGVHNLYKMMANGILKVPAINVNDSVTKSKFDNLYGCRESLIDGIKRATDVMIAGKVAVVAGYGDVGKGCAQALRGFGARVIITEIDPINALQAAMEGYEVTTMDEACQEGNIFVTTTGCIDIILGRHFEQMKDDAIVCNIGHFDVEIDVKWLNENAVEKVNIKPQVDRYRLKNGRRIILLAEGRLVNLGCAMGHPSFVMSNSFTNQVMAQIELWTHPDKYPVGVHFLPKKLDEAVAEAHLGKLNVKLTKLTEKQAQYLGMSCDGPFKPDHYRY
The target of experiment [2] is T1, Adenosylhomocysteinase. Put plainly: Inhibition of human recombinant SAHH.
Target sequence in this assay (P23526 whole entry): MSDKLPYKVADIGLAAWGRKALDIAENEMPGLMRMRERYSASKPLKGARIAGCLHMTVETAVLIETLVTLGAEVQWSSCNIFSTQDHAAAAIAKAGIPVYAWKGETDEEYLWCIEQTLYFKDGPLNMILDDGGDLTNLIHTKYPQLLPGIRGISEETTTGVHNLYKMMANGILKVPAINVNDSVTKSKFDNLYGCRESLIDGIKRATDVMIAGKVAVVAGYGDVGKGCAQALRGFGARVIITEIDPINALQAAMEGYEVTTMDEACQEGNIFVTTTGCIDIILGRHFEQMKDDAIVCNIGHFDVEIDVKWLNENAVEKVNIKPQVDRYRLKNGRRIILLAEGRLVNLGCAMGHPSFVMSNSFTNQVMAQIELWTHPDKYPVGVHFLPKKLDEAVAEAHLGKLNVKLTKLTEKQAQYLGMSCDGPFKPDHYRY
Experiment [3] in a line: Inhibition of Plasmodium falciparum recombinant SAHH.
The nature of experiment [4]: as §1.

Take `Nc1nc(N)c2ncn([C@@H]3C[C@@H](OS(=O)(=O)O)[C@@H](O)[C@H]3O)c2n1`: the result in the experiment on Plasmodium falciparum and on Adenosylhomocysteinase [1] was inactive.

Take `[N-]=[N+]=N[C@@H]1C[C@@H](n2cnc3c(N)ncnc32)[C@H](O)[C@@H]1O`: the pIC50 on Adenosylhomocysteinase [2] was 3.79; in experiment [3], 4.05.

Consider `Nc1ncnc2c1ncn2[C@@H]1C[C@@H](N)[C@@H](O)[C@H]1O`, for which the pIC50 (at Adenosylhomocysteinase [2]; in experiment [3]) was < 3.30 in each case.

As to `Nc1ncnc2c1ncn2[C@@H]1C[C@H](F)[C@@H](O)[C@H]1O`, the pIC50 in experiment [3] is 3.70. Moreover, the result at Adenosylhomocysteinase [1] was inactive.

Take `Nc1ncnc2c1ncn2[C@@H]1CC[C@@H](O)[C@H]1O`: the pIC50 in experiment [4] was 5.05.

For the compound `Nc1nc(N)c2ncn([C@@H]3C[C@@H](OS(N)(=O)=O)[C@@H](O)[C@H]3O)c2n1`, the outcome with Plasmodium falciparum and at Adenosylhomocysteinase [1] was inactive.

On to `[N-]=[N+]=N[C@H]1C[C@@H](n2cnc3c(N)ncnc32)[C@H](O)[C@@H]1O`, for which the pIC50 is 3.91 on Adenosylhomocysteinase [2] and 3.93 in experiment [3].

`Nc1ncnc2c1ncn2[C@@H]1C[C@H](O)[C@@H](O)[C@H]1O` [NORARISTEROMYCIN]: the pIC50 at Adenosylhomocysteinase [2] was 5.51; in experiment [3], 5.96.

For the compound `Nc1ncnc2c1ncn2[C@@H]1C[C@@H](OS(=O)(=O)O)[C@@H](O)[C@H]1O`, the outcome in the experiment on Plasmodium falciparum and at Adenosylhomocysteinase [1] was inactive.

Take `Nc1ncnc2c1ncn2[C@@H]1C[C@H](N)[C@@H](O)[C@H]1O`: the pIC50 was 4.12 at Adenosylhomocysteinase [2] and 3.90 in experiment [3].

For `Nc1ncnc2c1ncn2[C@@H]1C[C@@H](F)[C@@H](O)[C@H]1O`, the result in the experiment on Plasmodium falciparum and on Adenosylhomocysteinase [1] was inactive.

On to `Nc1ncnc2c1ncn2[C@@H]1C[C@H](OS(N)(=O)=O)[C@@H](O)[C@H]1O`, for which the result in the experiment on Plasmodium falciparum and at Adenosylhomocysteinase [1] was inactive.

Take `Nc1ncnc2c1ncn2[C@@H]1C[C@H](OS(=O)(=O)O)[C@@H](O)[C@H]1O`: the result with Plasmodium falciparum and at Adenosylhomocysteinase [1] was inactive.

Consider `Nc1nc(F)nc2c1ncn2[C@@H]1C[C@H](O)[C@@H](O)[C@H]1O`, for which the negative-log IC50 (pIC50) at Adenosylhomocysteinase [2] is 4.89; in experiment [3], 4.20.

With `Nc1nc(N)c2ncn([C@@H]3C[C@H](OS(=O)(=O)O)[C@@H](O)[C@H]3O)c2n1`, the result with Plasmodium falciparum and on Adenosylhomocysteinase [1] was inactive.

Turning to `Nc1nc(N)c2ncn([C@@H]3C[C@H](OS(N)(=O)=O)[C@@H](O)[C@H]3O)c2n1`, the outcome in the experiment with Plasmodium falciparum and at Adenosylhomocysteinase [1] was inactive.

Consider `Nc1ncnc2c1ncn2[C@@H]1C[C@@H](O)[C@@H](O)[C@H]1O`, for which the negative-log IC50 (pIC50) on Adenosylhomocysteinase [2] was 5.12; in experiment [3], 4.10.

With `Nc1ncnc2c1ncn2[C@@H]1C[C@@H](OS(N)(=O)=O)[C@@H](O)[C@H]1O`, the outcome with Plasmodium falciparum and on Adenosylhomocysteinase [1] was inactive.
